Structures are written as SMILES.

The test system of the experiment is 4T1 murine mammary cancer cells.

Experimental: In this example, the average body weight of mice is 20 g; and the doses of Taxol and RAP are 20 mg/kg, and 40 mg/kg, respectively.

On to `CC(=O)O[C@H]1C(=O)[C@@]2(C)[C@H]([C@H](OC(=O)c3ccccc3)[C@]3(O)C[C@H](OC(=O)[C@H](O)[C@@H](NC(=O)c4ccccc4)c4ccccc4)C(C)=C1C3(C)C)[C@]1(OC(C)=O)CO[C@@H]1C[C@@H]2O` [Taxol, paclitaxel], for which the “survival rate at Day 55” value (Day 55) was 30%. Besides, under “RAP 40 mg/kg/day gavage since day 0, Taxol 20 mg/kg/week i.p. since day 17, tumor cells at day 7”, the “anticancer effect compared to control group” value was “significant anticancer effect”. Further, where the note is “day 50, when all the mice of Control group died”, the “death at day 50” value was “no death occurred”.

Source of the values: patent publication US9265810B2, “Pharmaceutical composition and methods for modulating immune system, preventing, pretreating and/or treating cancers” (Hong Kong Baptist University, priority 2013, dated 2016).
